Laboratory results taken from US20200289514A1, “Novel Pyrazolo Pyrimidine Derivatives” (Novartis AG, priority 2015, published 2020).

Experiments:
Human IL2 promoter = Human IL2 promoter reporter gene assay (RGA) in Jurkat cells; type: cell-based; details: Jurkat clone K22 290_H23, anti-CD28 mAb + PMA, 5.5 h
Procedure: Human IL2 Promoter Reporter Gene Assay (RGA) in Jurkat Cells
The transfected Jurkat clone K22 290_H23 was propagated in RPMI 1640 supplemented with 10% heat inactivated fetal calf serum, 50 μM 2-mercaptoethanol and 1 mg/ml Geneticin. The cell concentration should not exceed 1×10e6/ml during culturing. The cells should not exceed passage 30. Prior to the assay the cells were washed and prepared to the concentration of 2×10e6 cells/ml.
Compound dilutions were made as 2×-concentrated solutions then diluted ½ by addition to cells. Two hundred and fifty μl of compound dilution and 250 μl of cells were mixed together in wells of a 96-deep well plate. Cells/compounds premix were incubated 30 min at 37° C. and 5% CO2 directly in the deep well plate.
After pre-incubation of cells with compounds, cells were stimulated with anti-CD28 mAb (clone 15E8) at 3 μg/ml+PMA at 1 μg/ml. Both co-stimulants were diluted in culture medium at a 10×-concentrated solution. 10 μl of co-stimulants were pipetted into the white 96-well plates and 100 μl of cell/compound mix was immediately added in duplicates. The cells were stimulated for 5.5 h at 37° C. and 5% CO2.
After cell stimulation, 50 μl of BriteLitePlus reagent (Perkin Elmer) was added to each well and the bioluminescence was measured with a Wallac EnVision reader (Perkin Elmer).

[1] = target: T1, C-domain of MALT1 (amino acids 329-824) (Homo sapiens, UniProt Q9UDY8); test: MALT1 Biochemical Assay - Version 2 (fluorescence intensity); design: C-domain of MALT1 (amino acids 329-824); details: fluorescence intensity readout, Rh110 substrate
T1 sequence (Q9UDY8 329-824): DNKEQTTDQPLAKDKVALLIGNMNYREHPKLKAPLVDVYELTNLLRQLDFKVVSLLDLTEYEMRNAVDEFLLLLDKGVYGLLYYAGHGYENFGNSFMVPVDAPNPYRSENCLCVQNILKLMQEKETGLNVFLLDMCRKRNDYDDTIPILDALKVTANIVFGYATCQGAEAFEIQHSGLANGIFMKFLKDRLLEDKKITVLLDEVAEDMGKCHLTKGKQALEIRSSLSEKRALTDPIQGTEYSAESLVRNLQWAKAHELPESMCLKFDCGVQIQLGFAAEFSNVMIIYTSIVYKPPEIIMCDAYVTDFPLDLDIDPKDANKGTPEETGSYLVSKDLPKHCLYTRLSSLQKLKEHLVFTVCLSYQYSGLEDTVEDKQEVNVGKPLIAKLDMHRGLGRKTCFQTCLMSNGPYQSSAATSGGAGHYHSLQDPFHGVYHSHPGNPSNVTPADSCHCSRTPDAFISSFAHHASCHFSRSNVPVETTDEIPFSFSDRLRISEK
Procedure: Alternatively the biochemical activity of some examples, namely example 43 and the Reference compound, were determined by measuring fluorescence intensity as described below:
MALT1 Biochemical Assay—Version 2:
The readout parameter is the increase of fluorescence intensity, proportional to enzyme activity.
The assay employs a short peptide substrate labeled with the fluorophore Rhodamine 110 (Rh110) as a fluorescence probe sensitive to the cleavage state of the substrate. The peptide substrate has the following sequence: Ac-Leu-Arg-Ser-Arg^Rh110-dPro (Product number BS-3027, Biosyntan, Germany; within the substrate sequence, A indicates the scissile bond). […] The assay was established for the 384-well plate format using black microtiter well plates. Test compounds were dissolved in 100% (v/v) DMSO or a mixture containing 90% (v/v) DMSO and 10% (v/v) H2O at a stock concentration of 100 mM. Serial dilutions of test compounds were prepared using either 100% (v/v) DMSO or a mixture containing 90% (v/v) DMSO and 10% (v/v) H2O.
y=A2+(A1−A2)/(1+(x/IC50)^ p) where y is the %-inhibition at the inhibitor concentration, x. A1 is the lowest inhibition value, and A2 the maximum inhibition value. The exponent, p, is the Hill coefficient.

[2] = target: T1, C-domain of MALT1 (amino acids 329-824); test: MALT1 Biochemical Assay - Version 1 (fluorescence lifetime)
Procedure: The readout parameter is the increase of fluorescence lifetime over time, proportional to enzyme activity.
The assay employs a short peptide substrate labeled with the single fluorophore PT14 as a fluorescence lifetime probe sensitive to the cleavage state of the substrate (PT14: 6-(9-oxo-9H-acridin-10-yl)-hexanoate, AssayMetrics, UK). […] Test compounds were dissolved in 100% (v/v) DMSO or a mixture containing 90% (v/v) DMSO and 10% (v/v) H2O at a stock concentration of 100 mM. Serial dilutions of test compounds were prepared using either 100% (v/v) DMSO or a mixture containing 90% (v/v) DMSO and 10% (v/v) H2O.

| IC50 (Human IL2 promoter) | IC50 [1] | IC50 [2] | SMILES |
| --- | --- | --- | --- |
| 69 nM | 8 nM |  | CO[C@@H](C)c1c(NC(=O)Nc2cnc(C(N)=O)c(Cl)c2)cnc2cc(F)nn12 [Example 43, (S)-3-chloro-5-(3-(2-fluoro-7-(1-methoxyethyl)pyrazolo[1,5-a]pyrimidin-6-yl)ureido)picolinamide] |
|  | 6 nM | 12 nM | CC(C)[C@H](NC(=O)OCc1ccccc1)C(=O)N[C@@H](C)C(=O)N[C@@H](CC(=O)OC(C)(C)C)C(=O)COC(=O)c1c(Cl)cccc1Cl [Reference**, reference compound] |
